{"source": "patent US6291507A", "about": "“Chemical compounds” (Astrazeneca UK Limited, priority 1998, dated 2001)", "target": "T1, hMCP-1 receptor (MCP-1 receptor B, CCR2B) (Homo sapiens, UniProt P41597)", "T1 construct": "expressed in transfected cells; host or cells: CHO-K1 (clone 7, CHO-CCR2B), membrane fragments", "T1 sequence (P41597 1-360 isoform P41597-2)": "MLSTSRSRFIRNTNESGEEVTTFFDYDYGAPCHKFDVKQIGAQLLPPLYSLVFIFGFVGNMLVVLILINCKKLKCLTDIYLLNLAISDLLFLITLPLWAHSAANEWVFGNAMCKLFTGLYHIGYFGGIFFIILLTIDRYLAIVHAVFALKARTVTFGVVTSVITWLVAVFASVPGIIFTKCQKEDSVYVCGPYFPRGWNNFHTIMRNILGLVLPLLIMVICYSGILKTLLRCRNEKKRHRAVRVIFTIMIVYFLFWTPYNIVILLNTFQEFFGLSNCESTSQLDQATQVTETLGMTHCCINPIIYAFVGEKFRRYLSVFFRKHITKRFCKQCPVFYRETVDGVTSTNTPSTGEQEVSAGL", "assay": "hMCP-1 receptor-binding assay", "conditions": "competition with 100 pM 125I-labelled MCP-1; CHO-CCR2B cell membranes; 0.1-200 μM, eight point dose-response curves in duplicate", "source_text": "a) hMCP-1 Receptor-binding Assay\nThe MCP-1 receptor B (CCR2B) cDNA was cloned by PCR from THP-1 cell RNA using suitable oligonucleotide primers based on the published MCP-1 receptor sequences (Charo et al., 1994, Proc. Natl. Acad. Sci. USA, 91, 2752). The resulting PCR products were cloned into vector PCR-II™ (InVitrogen, San Diego, Calif.). Error free CCR2B cDNA was subcloned as a Hind III-Not I fragment into the eukaryotic expression vector pCDNA3 (InVitrogen) to generate pCDNA3/CC-CKR2A and pCDNA3/CCR2B respectively.\nLinearised pCDNA3/CCR2B DNA was transfected into CHO-KI cells by calcium phosphate precipitation (Wigler et al., 1979, Cell, 16, 777). Transfected cells were selected by the addition of Geneticin Sulphate (G418, Gibco BRL) at 1 mg/ml, 24 hours after the cells had been transfected. Preparation of RNA and Northern blotting were carried out as described previously (Needham et al., 1995, Prot. Express. Purific., 6, 134). CHO-K1 clone 7 (CHO-CCR2B) was identified as the highest MCP-1 receptor B expressor.\nCHO-CCR2B cells were grown in DMEM supplemented with 10% foetal calf serum, 2 mM glutamine, lx Non-Essential Amino Acids, 1× Hypoxanthine and Thymidine Supplement and Penicillin-Streptomycin (at 50 μg streptomycin/ml; Gibco BRL). […]"}
{"smiles": "Cc1c2c(n(Cc3ccc(Cl)c(Cl)c3)c1C(=O)O)CCCC2=O", "note": "[Example 4a, 1-(3,4-Dichlorobenzyl)-3-methyl-4-oxo-4,5,6,7-tetrahydroindole-2-carboxylicAcid]", "values": [{"measurement": "IC50", "result": 400, "unit": "nM"}]}
